pIC50: −log10 of the molar value. Like-named read-outs stand apart in the source and are kept apart here.
Tests used:
[1] = target: Full length wild-type cereblon CRBN (Homo sapiens (Human), UniProt Q96SW2); assay: fluorescence polarization (FP) assay, cereblon binding
Description: Compound activity was monitored in a fluorescence polarization (FP) homogeneous assay using 1-[5-({2-[2-(2-{[2-(2,6-dioxopiperidin-3-yl)-1,3-dioxo-2,3-dihydro-1H-isoindol-4-yl]oxy}acetamido)ethoxy]ethyl}carbamoyl)pentyl]-3,3-dimethyl-2-[(1E,3E)-5-[(2E)-1,3,3-trimethyl-5-sulfo-2,3-dihydro-1H-indol-2-ylidene]penta-1,3-dien-1-yl]-3H-indol-1-ium-5-sulfonate as a fluorescent probe. Unless otherwise stated, all reagents were purchased from Sigma Aldrich. […] Full length wild-type cereblon CRBN (80.0 nM, 10 μL) was incubated in assay buffer containing 20 mM HEPES (pH 8.0), […], 0.5 mM TCEP and 0.05% Tween 20 in the presence or absence of compound (300 nL). Inhibitors were stored as 10 mM DMSO stocks in an inert environment (low humidity, dark, low oxygen, room temperature) using the Storage Pod System. […] Following incubation at room temperature for 30 min, the assay was initiated by dispensing the probe to a final concentration of 5 nM (2.5 nL of a 20 μM stock) using the Echo ESXX. […] The FP signal was subsequently normalized to the no-compound control (i.e., DMSO). Analysis and IC50 values were derived using Dotmatics (Dotmatics UK) software.

GSPT1 = GSPT1 (Homo sapiens (Human), UniProt P15170+Q96SW2); assay: immunofluorescence assay for GSPT1 degradation in CAL-51 cells (Example 4); format: cell-based
Chain of GSPT1 (P15170 whole entry): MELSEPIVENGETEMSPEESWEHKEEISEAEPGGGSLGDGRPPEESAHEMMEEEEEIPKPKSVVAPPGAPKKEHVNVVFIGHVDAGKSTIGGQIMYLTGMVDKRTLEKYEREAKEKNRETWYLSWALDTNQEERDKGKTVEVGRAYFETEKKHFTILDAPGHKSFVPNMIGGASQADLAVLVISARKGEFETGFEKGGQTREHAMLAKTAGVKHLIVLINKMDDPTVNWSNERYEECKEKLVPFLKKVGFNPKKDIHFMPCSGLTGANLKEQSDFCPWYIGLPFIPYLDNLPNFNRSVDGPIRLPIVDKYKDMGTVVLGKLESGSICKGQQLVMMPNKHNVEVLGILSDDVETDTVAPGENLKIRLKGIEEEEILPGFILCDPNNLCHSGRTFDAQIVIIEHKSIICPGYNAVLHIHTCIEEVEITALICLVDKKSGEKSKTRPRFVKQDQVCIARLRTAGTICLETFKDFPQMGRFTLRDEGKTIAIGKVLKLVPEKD
Chain of GSPT1 (Q96SW2 whole entry): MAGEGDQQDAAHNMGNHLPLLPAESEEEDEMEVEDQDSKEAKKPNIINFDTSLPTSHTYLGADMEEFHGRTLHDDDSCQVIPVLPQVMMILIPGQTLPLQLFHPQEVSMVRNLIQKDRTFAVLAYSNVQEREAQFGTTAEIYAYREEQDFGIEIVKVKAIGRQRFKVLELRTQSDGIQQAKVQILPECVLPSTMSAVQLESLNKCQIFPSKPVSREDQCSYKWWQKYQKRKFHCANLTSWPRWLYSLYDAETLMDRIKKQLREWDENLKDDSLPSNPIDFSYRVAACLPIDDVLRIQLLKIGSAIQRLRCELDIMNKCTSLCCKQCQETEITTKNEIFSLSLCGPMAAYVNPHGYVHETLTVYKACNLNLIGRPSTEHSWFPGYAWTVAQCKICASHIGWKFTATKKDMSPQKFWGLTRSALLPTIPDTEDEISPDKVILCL
Chain of GSPT1 (Q16531 2-1140 partner): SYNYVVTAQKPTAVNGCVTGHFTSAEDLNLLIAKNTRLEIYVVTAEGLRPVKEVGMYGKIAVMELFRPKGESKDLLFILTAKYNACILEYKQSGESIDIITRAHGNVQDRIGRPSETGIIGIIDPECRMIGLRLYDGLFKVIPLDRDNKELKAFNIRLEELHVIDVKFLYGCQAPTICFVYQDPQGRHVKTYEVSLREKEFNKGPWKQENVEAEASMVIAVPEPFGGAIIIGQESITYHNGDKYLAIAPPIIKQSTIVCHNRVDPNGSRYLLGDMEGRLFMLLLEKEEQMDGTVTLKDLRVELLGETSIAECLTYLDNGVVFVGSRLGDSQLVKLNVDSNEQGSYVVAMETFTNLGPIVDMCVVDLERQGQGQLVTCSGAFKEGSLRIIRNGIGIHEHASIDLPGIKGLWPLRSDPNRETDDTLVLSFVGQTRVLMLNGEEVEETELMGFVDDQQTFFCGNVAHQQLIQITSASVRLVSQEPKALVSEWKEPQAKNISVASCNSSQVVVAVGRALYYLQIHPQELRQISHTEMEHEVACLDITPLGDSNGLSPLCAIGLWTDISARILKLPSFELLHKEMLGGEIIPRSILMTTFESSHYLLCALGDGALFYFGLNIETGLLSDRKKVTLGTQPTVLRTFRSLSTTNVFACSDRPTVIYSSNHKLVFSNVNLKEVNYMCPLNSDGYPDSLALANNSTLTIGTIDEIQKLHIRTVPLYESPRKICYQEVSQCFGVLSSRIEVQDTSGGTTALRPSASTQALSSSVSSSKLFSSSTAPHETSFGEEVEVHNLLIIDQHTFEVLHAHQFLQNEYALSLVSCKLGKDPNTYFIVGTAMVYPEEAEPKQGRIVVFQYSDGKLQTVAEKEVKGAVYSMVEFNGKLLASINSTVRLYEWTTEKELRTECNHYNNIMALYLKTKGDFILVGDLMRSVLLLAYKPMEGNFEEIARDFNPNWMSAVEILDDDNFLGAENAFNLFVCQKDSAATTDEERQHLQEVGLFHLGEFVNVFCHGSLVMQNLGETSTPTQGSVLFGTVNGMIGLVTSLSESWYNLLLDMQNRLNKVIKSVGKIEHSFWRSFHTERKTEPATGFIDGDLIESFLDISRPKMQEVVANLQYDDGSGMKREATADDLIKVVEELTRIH
Description: The representative compounds were tested in an immunofluorescence assay for their activity to bind to degrade GSPT1. CAL-51 cells were purchased from DSMZ (cat. Number ACC302), sub-cultured in 90% Dulbecco's MEM (4.5 g/L glucose, Gibco 11965) +10% heat inactivated FBS (BioConcept, 2-01F136I) and incubated at 37° C., 5% CO2. For the assay, imaging microtiterplate Cell Carrier 96 Ultra (Perkin Elmer 6055302) were pre-coated with Fibronectin (Sigma F085, 30 μl at 0.2 μg/ml) in PBS (100 μl, Gibco 14190) for 45 min at room temperature, rinsed with PBS and CAL-51 cells (30 K cells/well) were plated and let to adhere overnight. Cells were treated with compounds typically using a serial dilution ranging from 30 μM to 0.1 nM for 6 hours. Compounds were stored at 10 mM DMSO stocks. Vehicle (DMSO), positive (CC-885, 10 μM) and rescue controls (positive control plus 0.2 μM bortezomib) were also included atthis stage. Cells were subsequently rinsed with PBS and fixed in 10% Formalin solution (50 μl, Sigma HT5011)) for 20 mins at room temperature. Following three consecutive PBS washes (100 μl), cells were permeabilized in 0.1% Triton X-100 in PBS (Sigma 93443, 50 μl) for 15 mins at room temperature. Following three further PBS washes, 50 μl blocking buffer (1% BSA, Sigma A4503, in PBS) was added for 45 min for signal-to-noise reduction.
Primary antibody (human GSPT1, Sigma HPA052488) was diluted in blocking buffer (dil.1/300, 35 μl/well) and incubated with the cells overnight at 4° C. After three PBS washes, Alexa-fluor 488 coupled secondary antibodies (Invitrogen, A32731, dil.1/1000), Alexa-fluor 647-Phalloidin (Invitrogen, A22287, dil.1/200) and DAPI (Thermo, #62248, dil.1/1000) were diluted in blocking buffer and incubated with the samples for 2 hours at room temperature. After three final PBS washes, samples were conserved in 100 μl PBS in the dark, until measurement. Image acquisition was performed on the Operetta High-Content Imager (Perkin-Elmer). Fluorescence intensity of Alexa-Fluor 488 (GSPT1), Alexa-Fluor 647 (Actin) and DAPI (Nucleus) were measured. For the determination of GSPT1 DC50 values, a custom algorithm implemented in the PerkinElmer image analysis software Harmony-Acapella® was developed. After user-defined setting of adjustment parameters, the analysis was run identically without human intervention for all image fields. DAPI staining of the nuclei was used to determine the location of cells using standard nuclei detection modules. Segmentation artifacts were removed by threshold-based filters for area, roundness and intensity. The outline of the cells was determined analogously from the sum of the normalized, smoothed DAPI and Actin channel, starting from each nucleus. The Alexa-Fluor 488 (GSPT1) signal intensity in each cell was finally measured, in order to obtain a Mean intensity per cell. GSPT1 degradation (DC50) was calculated after normalization to controls and data import in CDD vault Database, using non-linear regression.

[2] = 6 hours, read-out: Activity for GSPT1 degradation, Code (DC50)
[3] = GSPT1 degradation, read-out: DC50 value

Chain of Full length wild-type cereblon CRBN (Q96SW2 whole entry): as the sequence (Q96SW2 whole entry) above

| SMILES | pIC50 ([1]; read-out: rFP IC50) | DC50 (GSPT1; [2]) | pIC50 ([1]; IC50 value) | pIC50 ([1]; read-out: IC50 value) | DC50 (GSPT1; [3]) | DC50 (GSPT1; read-out: Activity for GSPT1 degradation, Code (DC50), 6 hours) |
| --- | --- | --- | --- | --- | --- | --- |
| O=C1CCC(N2Cc3ccc(COC(=O)Nc4cc(Cl)cc(OCC5CCNC5)c4)cc3C2=O)C(=O)N1 (stereo not drawn) [Compound 16] | > 6.30 | > 300 nM | – | – | – | – |
| Cc1ccc(NC(=O)OCc2ccc3c(c2)C(=O)N(C2CCC(=O)NC2=O)C3)cc1C#N (stereo not drawn) [Compound 110, (2-(2,6-dioxopiperidin-3-yl)-3-oxoisoindolin-5-yl)methyl(3-cyano-4-methylphenyl)carbamate] | > 6.30 | – | > 5.96 | > 6.30 | ≤ 30 nM | < 30 nM |
| Cc1c(F)cc(NC(=O)OCc2ccc3c(c2)C(=O)N(C2CCC(=O)NC2=O)C3)cc1Cl (stereo not drawn) [Compound 116] | < 5.77 | 30 to 300 nM | – | – | – | – |
| O=C1CCC(N2Cc3ccc(COC(=O)NCC4CC4)cc3C2=O)C(=O)N1 (stereo not drawn) [Compound 22] | < 5.77 | > 300 nM | – | – | – | – |
| Cc1cc(NC(=O)OCc2ccc3c(c2)C(=O)N(C2CCC(=O)NC2=O)C3)cc(C)c1C#N (stereo not drawn) [Compound 108] | > 6.30 | 30 to 300 nM | – | – | – | – |
| O=C1CCC(N2Cc3ccc(COC(=O)Nc4cc(F)c(-c5ccccc5)c(F)c4)cc3C2=O)C(=O)N1 (stereo not drawn) [Compound 134, (2-(2,6-dioxopiperidin-3-yl)-3-oxoisoindolin-5-yl)methyl(2,6-difluoro-[1,1′-biphenyl]-4-yl)carbamate] | < 5.77 | 30 to 300 nM | – | – | – | – |
| Cc1ncc(NC(=O)OCc2ccc3c(c2)C(=O)N(C2CCC(=O)NC2=O)C3)cc1OC(F)(F)F (stereo not drawn) [Compound 91] | – | < 30 nM | – | > 5.96 | ≤ 30 nM | – |
| O=C1CCC(N2Cc3ccc(COC(=O)Nc4cnc(N5CCCCC5)cn4)cc3C2=O)C(=O)N1 (stereo not drawn) [Compound 94] | > 6.30 | 30 to 300 nM | – | – | – | – |
| CC(NC(=O)OCc1ccc2c(c1)C(=O)N(C1CCC(=O)NC1=O)C2)c1ccccc1 (stereo not drawn) [Compound 102] | – | > 300 nM | – | > 5.96 | – | – |
| O=C1CCC(N2Cc3ccc(COC(=O)Nc4ccc(N5CCOCC5)nc4)cc3C2=O)C(=O)N1 (stereo not drawn) [Compound 76] | – | 30 to 300 nM | – | > 5.96 | – | – |
| O=C1CCC(N2Cc3ccc(COC(=O)Nc4cnc5c(c4)CCC5)cc3C2=O)C(=O)N1 (stereo not drawn) [Compound 53] | – | 30 to 300 nM | – | > 5.96 | – | – |
| CC(C)CCNC(=O)OCc1ccc2c(c1)C(=O)N(C1CCC(=O)NC1=O)C2 (stereo not drawn) [Compound 27] | < 5.77 | > 300 nM | – | – | – | – |
| O=C1CCC(N2Cc3ccc(COC(=O)N4CCN(c5ccccc5)CC4)cc3C2=O)C(=O)N1 (stereo not drawn) [Compound 36] | > 6.30 | > 300 nM | – | – | – | – |
| O=C1CCC(N2Cc3ccc(COC(=O)NC4CCCC4)cc3C2=O)C(=O)N1 (stereo not drawn) [Compound 29] | – | > 300 nM | – | > 5.96 | – | – |
| O=C1CCC(N2Cc3ccc(COC(=O)Nc4ccc(-c5ccccc5)cn4)cc3C2=O)C(=O)N1 (stereo not drawn) [Compound 143, (2-(2,6-dioxopiperidin-3-yl)-3-oxoisoindolin-5-yl)methyl (5-phenylpyridin-2-yl)carbamate] | < 5.77 | 30 to 300 nM | – | – | – | – |
| Cc1ccc(NC(=O)OC(C)c2ccc3c(c2)C(=O)N(C2CCC(=O)NC2=O)C3)cc1Cl (stereo not drawn) [Compound 17] | < 5.77 | > 300 nM | – | – | – | – |
| O=C1CCC(N2Cc3ccc(COC(=O)Nc4cc(CN5CCOCC5)cc(OC(F)(F)F)c4)cc3C2=O)C(=O)N1 (stereo not drawn) [Compound 4] | – | < 30 nM | – | > 5.96 | ≤ 30 nM | – |
| CC(C)(C)c1cc(NC(=O)OCc2ccc3c(c2)C(=O)N(C2CCC(=O)NC2=O)C3)ccn1 (stereo not drawn) [Compound 114] | > 6.30 | < 30 nM | – | – | – | – |
| O=C1CCC(N2Cc3ccc(COC(=O)Nc4cnc5c(c4)COCC5)cc3C2=O)C(=O)N1 (stereo not drawn) [Compound 54] | > 6.30 | > 300 nM | – | – | – | – |
| O=C1CCC(N2Cc3ccc(COC(=O)Nc4ccc(N5CCCC(F)(F)C5)nc4)cc3C2=O)C(=O)N1 (stereo not drawn) [Compound 73] | > 6.30 | 30 to 300 nM | – | – | – | – |
| O=C1CCC(N2Cc3ccc(COC(=O)Nc4ccc(-c5ccccn5)cc4)cc3C2=O)C(=O)N1 (stereo not drawn) [Compound 50] | < 5.77 | < 30 nM | – | – | ≤ 30 nM | – |
| Cc1c(CN2CCOCC2)cc(NC(=O)OCc2ccc3c(c2)C(=O)N(C2CCC(=O)NC2=O)C3)cc1OC(F)(F)F (stereo not drawn) [Compound 34] | < 5.77 | < 30 nM | – | – | ≤ 30 nM | – |

From patent publication US11912682B2, “Isoindolinone compounds” (Monte Rosa Therapeutics, Inc., priority 2021, dated 2024)
